Test results published in US9844519B1, “Method of treating TDP-43 proteinopathies using hexachlorophene” (University of South Florida, priority 2014, dated 2017).
Read-outs that look alike come from different tables or passages of the source. Peptide text beside a SMILES is read from it. * marks the point of attachment. Cbz = O=C(OCc1ccccc1)*

Experiments:
TDP-43 = target: T1, TDP-43 (Mus musculus, UniProt Q921F2); assay: InCell Western (ICW) drug screen for TDP-43 levels in N9 cells; format: cell-based; conditions: for % TDP43 level: N9 cells treated 24 hours, DMSO vehicle control = 100
T1 construct: N9 cells expressing endogenous TDP-43 were treated with various concentrations of B10; endogenous in cells; host or cells: N9 mouse microglial cells
Experimental: To optimize the ICW technique for screening TDP-43 targeting drugs, N9 cells were seeded in a 96-well plate and processed for ICW by using various dilution of TDP-43 antibody.
For drug screening, N9 cells were treated with a panel of candidate drug molecules for 24 hours and the effect on TDP-43 levels was analyzed using the InCell Western assay.
To optimize TDP-43 targeting ICW, N9 cells were seeded in a 96-well plate and probed with different dilutions of TDP-43 antibody as previously described (Jinwal and Dickey, 2011). For the identification of candidate drug molecules, N9 cells were treated with an array of drugs for 24 hours and processed for ICW (Jinwal and Dickey, 2011). In brief, cells were fixed, washed with PBS and incubated in blocking buffer. Cells were then incubated in primary antibody to TDP-43 (1:1000) and GAPDH (1:3000) for overnight. After washing with 0.2% Tween-20 PBS, cells were incubated with fluorescently tagged secondary antibodies for 1 hour and 30 minutes. Fluorescence intensity was then recorded and quantified using the Odyssey Infrared Imaging System (LI-COR). ICW experiments were performed in duplicate.

[1] = system: C25-TDP-43 transgenic C. elegans; assay: Liquid thrashing motility assay in C25-TDP-43 transgenic C. elegans; format: in vivo; conditions: C25 worms on NGM plates containing 5 μM or 10 μM B10
Experimental: (§1) For in vivo studies the inventors used a C. elegans model expressing the C25 fragment to analyze changes in behavior and pathological TDP-43 upon B10 treatment.
(§2) The Solid Method of drug dosing was used in which age-synchronized C. elegans eggs were plated on Nematode Growth Media (NGM) plates containing DMSO vehicle or 5 μM B10 or 10 μM B10.
(§3) A behavioral assay that measures liquid thrashing ability was used to analyze the effect of B10 treatment on motility in age synchronized C25 animals. For microscopic analysis adult worms were fixed on slide and imaged using fluorescence microscopy.

C25 mutant of TDP-43 = target: T2, C25 mutant of TDP-43 (Homo sapiens, UniProt Q13148); assay: Immunofluorescence of cytoplasmic C25 mutant TDP-43 in HEK293 cells; format: cell-based; conditions: 3 μM, 24 hours
T2 construct: the C25 cleaved fragment that localizes to the cytosol; expressed in transfected cells; host or cells: HEK293
Experimental: 24 hours after transfection, the medium was replaced and cells were treated with either DMSO or 3 μM B10 for 24 hours. […] Following three washes in PBS, cells were incubated in blocking buffer (1% BSA, 0.1% Tween-20 in PBS) for one hour. A mouse monoclonal antibody to the Myc tag at a dilution of 1:400 was applied for 1 hour. After three washes in PBS, cells were incubated with an Alexa488 tagged goat anti-mouse IgG secondary antibody at 1:800 for 1 hour. […] Coverslips were mounted on slides using Fluoromount G. Imaging was performed with a Zeiss AxioVision imager.

amyloid beta (Aβ) = target: T3, amyloid beta (Aβ) (Homo sapiens, UniProt P05067); conditions: cited from earlier work
T3 construct: the amyloid protein (Aβ) which is a proteolytic product of a precursor protein of much larger size

ubiquitinated proteins = assay: Western blot of ubiquitinated proteins in HEK293 cell samples; format: cell-based; conditions: HEK293 samples from FIG. 4A, 24 hours, ubiquitin antibody
Experimental: (§4) HEK293 cells were treated with 3 and 10 μM B10 for 24 hours. An equivalent volume of DMSO was used for control treatments. […] Briefly, cells were lysed in Mammalian-Protein Extraction Reagent (M-PER; Pierce, Rockford, Ill.) containing 1× protease inhibitor mixture (Calbiochem, Billerica, Mass.), 1 mM phenylmethylsulfonyl fluoride (PMSF) and 1× phosphatase inhibitor I and II cocktails (Sigma). Protein concentration was determined using the Coomassie (Bradford) Protein Assay Kit (Pierce). Samples were analyzed using TDP-43, FUS, and GAPDH antibodies by Western blotting. Drug treatment experiments were performed in triplicate. For ubiquitinated protein analysis upon MG132 treatment, ubiquitin antibody (Santa Cruz Biotechnology) was used. Statistical analysis was performed using Microsoft Excel.

[2] = system: Wnt-β-catenin signaling pathway; conditions: B lymphoma cells; cited from earlier work
HEK293 cells = format: cell-based; conditions: human, 24 h
Experimental: (§5) Whether B10 treatment causes cytotoxicity was next tested. The inventors performed the LDH assay with N9 and HEK293 cells. […] B10 causes ˜3% and ˜13% cytotoxicity at 3 and 10 μM in the HEK293 cells, respectively (FIG. 5B).
(§6) The LDH assay was performed using the CytoTox 96 Non-Radioactive Cytotoxicity Assay from Promega as per manufacturer's instructions. Briefly, N9 and HEK cells were treated with different concentrations of hexachlorophene for 24 hours. Cells treated with a lethal dose of 150 μM hexachlorophene were used as the maximal LDH release control. Culture supernatant was collected and centrifuged at 2000 rpm to pellet debris. 50 μl of supernatant from each sample was transferred to a flat-bottom 96 well plate. The Substrate Mix provided in the kit was reconstituted with Assay Buffer. 50 μl of the reconstituted Substrate Mix was added to the culture supernatant. The plate was incubated at room temperature, protected from light, for 30 minutes. 50 μl of Stop Solution was added to each well at the end of the incubation period. Absorbance was read at 490 nm. The experiment was performed in triplicate for each cell line. Statistical analysis was performed using Microsoft Excel.

N9 cells = format: cell-based; conditions: mouse, 24 h
Experimental: as §5, §6

endogenous TDP-43 [3] = target: T4, endogenous TDP-43 (Homo sapiens, UniProt Q13148); assay: Western blotting of endogenous TDP-43 in HEK293 cells; format: cell-based; conditions: endogenous TDP-43, 3 μM, 24 hours, Western blot
T4 construct: HEK293 cells expressing endogenous TDP-43 and FUS; endogenous in cells; host or cells: HEK293
Experimental: as §4

endogenous TDP-43 [4] = target: T5, endogenous TDP-43 (Mus musculus, UniProt Q921F2); assay: Western blotting of endogenous TDP-43 in N9 cells, dose response; format: cell-based; conditions: 3 μM, 24 hours, Western blot
T5 construct: N9 cells expressing endogenous TDP-43 were treated with various concentrations of B10; endogenous in cells; host or cells: N9 mouse microglial cells
Experimental: N9 cells were treated with different concentration of B10 for 24 hours and levels of endogenous TDP-43 were determined by Western blotting.
For dose response experiments, N9 cells were treated with different concentrations of B10 for 24 hours. […] An equivalent volume of DMSO was used for control treatments for both sets of experiments. […] Briefly, cells were lysed in Mammalian-Protein Extraction Reagent (M-PER; Pierce, Rockford, Ill.) containing 1× protease inhibitor mixture (Calbiochem, Billerica, Mass.), 1 mM phenylmethylsulfonyl fluoride (PMSF) and 1× phosphatase inhibitor I and II cocktails (Sigma). Protein concentration was determined using the Coomassie (Bradford) Protein Assay Kit (Pierce). Samples were analyzed for Myc and GAPDH by Western blotting. […] Drug treatment experiments were repeated at least two times.

C25-TDP-43 = target: T6, C25-TDP-43 (Homo sapiens, UniProt Q13148); assay: Fluorescence microscopy of C25-TDP-43 aggregates in head neurons of transgenic C. elegans; format: in vivo; conditions: C25 worms
T6 construct: a C. elegans model expressing the C25 fragment; expressed in transfected cells; host or cells: transgenic C. elegans (neurons)
Experimental: as §1, §2, §3

[5] = system: primary neuronal cultures; conditions: cited from earlier work
[6] = system: Myc-tagged WT TDP-43, C25 mutant, M337V and Q331K; assay: Western blotting of Myc-tagged WT and mutant TDP-43 transfected in HEK293 cells; format: cell-based; conditions: HEK293 cells transfected with Myc-tagged WT, 3 μM, 24 hours
[7] = dose of about 10 mg/kg, transgenic TDP43 mouse model; cited from earlier work
FUS (Fused in Sarcoma) = assay: Western blotting of endogenous FUS in HEK293 cells; format: cell-based
Experimental: as §4

rats = conditions: pre-treatment prior to administration of B10; cited from earlier work

T1 sequence (Q921F2 whole entry): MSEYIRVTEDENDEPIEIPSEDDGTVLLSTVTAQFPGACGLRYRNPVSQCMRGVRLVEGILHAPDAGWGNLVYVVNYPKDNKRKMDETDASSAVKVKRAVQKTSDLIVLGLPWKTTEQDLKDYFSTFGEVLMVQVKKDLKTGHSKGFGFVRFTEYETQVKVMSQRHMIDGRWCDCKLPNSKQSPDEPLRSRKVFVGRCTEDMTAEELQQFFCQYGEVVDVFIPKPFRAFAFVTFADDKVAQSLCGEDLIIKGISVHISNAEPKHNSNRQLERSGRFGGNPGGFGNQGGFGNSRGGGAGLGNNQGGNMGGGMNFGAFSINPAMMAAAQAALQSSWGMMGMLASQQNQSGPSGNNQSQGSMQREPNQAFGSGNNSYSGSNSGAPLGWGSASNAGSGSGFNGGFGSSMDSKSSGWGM
T2 sequence (Q13148 219-414 limits assumed, change not shown): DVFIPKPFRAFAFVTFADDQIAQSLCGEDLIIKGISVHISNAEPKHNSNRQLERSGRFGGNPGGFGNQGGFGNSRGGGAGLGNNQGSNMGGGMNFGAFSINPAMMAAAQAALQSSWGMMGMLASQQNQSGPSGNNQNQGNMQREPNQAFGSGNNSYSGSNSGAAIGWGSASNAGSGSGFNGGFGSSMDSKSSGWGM
T6 sequence (Q13148 219-414 limits assumed): as the sequence (Q13148 219-414 limits assumed, change not shown) above
T3 sequence (P05067 672-713 limits assumed): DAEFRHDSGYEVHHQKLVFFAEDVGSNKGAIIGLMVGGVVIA
T5 sequence (Q921F2 whole entry): as the sequence (Q921F2 whole entry) above
T4 sequence (Q13148 whole entry): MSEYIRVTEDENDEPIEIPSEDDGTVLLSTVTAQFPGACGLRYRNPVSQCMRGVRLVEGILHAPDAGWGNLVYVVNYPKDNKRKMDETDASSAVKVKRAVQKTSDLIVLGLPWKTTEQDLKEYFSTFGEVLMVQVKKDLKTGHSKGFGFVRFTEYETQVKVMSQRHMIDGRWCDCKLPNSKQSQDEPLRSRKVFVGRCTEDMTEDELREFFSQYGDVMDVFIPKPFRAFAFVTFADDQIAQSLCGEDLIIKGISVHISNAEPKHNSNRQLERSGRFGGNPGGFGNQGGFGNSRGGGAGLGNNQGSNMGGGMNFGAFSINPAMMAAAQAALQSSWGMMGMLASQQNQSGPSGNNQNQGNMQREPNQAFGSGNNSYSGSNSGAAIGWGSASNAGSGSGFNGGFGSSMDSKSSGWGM

Q: With OCCN1CCN(CCCN2c3ccccc3Sc3ccc(Cl)cc32)CC1 [B5, Perphenazine] as the compound, how does the “% TDP43 level” value (TDP-43) read?
A: 85%

Q: For CO[C@H]1/C=C/O[C@@]2(C)Oc3c(C)c(O)c4c(O)c(c(/C=N/N5CCN(C)CC5)c(O)c4c3C2=O)NC(=O)/C(C)=C\C=C\[C@H](C)[C@H](O)[C@@H](C)[C@@H](O)[C@@H](C)[C@H](OC(C)=O)[C@@H]1C [B6, Rifampicin], which “% TDP43 level” value (TDP-43) is on record?
A: 103%

Q: With Nc1ccc(S(=O)(=O)c2ccc(N)cc2)cc1 [B7, Dapsone] as the compound, how does the “% TDP43 level” value (TDP-43) read?
A: 100%

Q: Which “% TDP43 level” value (TDP-43) does the source give for NS(=O)(=O)c1cc2c(cc1C(F)(F)F)NCNS2(=O)=O [B8, Hydroflumethiazide] here?
A: 89%

Q: With Oc1c(Cl)cc(Cl)c(Cl)c1Cc1c(O)c(Cl)cc(Cl)c1Cl [B10, Hexachlorophene] as the compound, how does the “motility (liquid thrashing)” value [1] read?
A: improved motility of C25 worms

Q: And the “amount of cytoplasmic C25 mutant TDP-43” value (C25 mutant of TDP-43)?
A: decreases the amount of cytoplasmic C25 mutant TDP-43

Q: What about the “effect on Aβ fibril formation” value (amyloid beta (Aβ)) of the same compound?
A: inhibit amyloid beta (Aβ) fibril formation

Q: And the “levels of ubiquitinated proteins” value (ubiquitinated proteins)?
A: slight increase in ubiquitinated proteins

Q: What about the “effect on Wnt-β-catenin signaling pathway” value [2] of the same compound?
A: inhibit the Wnt-β-catenin signaling pathway in B lymphoma cells

Q: What about the “cytotoxicity (LDH release)” value (HEK293 cells; 3 μM) of the same compound?
A: ~3%

Q: And the “cytotoxicity (LDH release)” value (HEK293 cells; 10 μM)?
A: ~13%

Q: And the “cytotoxicity (LDH release)” value (N9 cells; 3 μM)?
A: ~6%

Q: And the “cytotoxicity (LDH release)” value (N9 cells; 10 μM)?
A: ~23%

Q: And the “reduction of TDP-43 levels” value (endogenous TDP-43 [3])?
A: ~50%

Q: And the “reduction of endogenous TDP-43 levels” value (endogenous TDP-43 [4])?
A: approximately 50%

Q: What about the “% TDP43 level” value (TDP-43) of the same compound?
A: 63%

Q: And the “decrease in levels of TDP-43 compared to the control” value (TDP-43; N9 cells, 24 hours)?
A: ~40%

Q: And the “accumulation of TDP-43 in neurons in the head region” value (C25-TDP-43)?
A: decreased the accumulation of TDP-43 in the neurons in the head region of C25 worms

Q: And the “protection from Aβ-induced toxicity” value [5]?
A: protect primary neuronal cultures from Aβ-induced toxicity

Q: And the “decrease in levels of TDP-43 and its mutants” value [6]?
A: approximately 50%

Q: And the brain permeability [7]?
A: 50%

Q: And the “effect on levels of FUS” value (FUS (Fused in Sarcoma))?
A: increases levels of FUS

Q: What about the “increase of FUS levels” value (FUS (Fused in Sarcoma); 3 μM, 24 hours, Western blot) of the same compound?
A: ~300%

Q: For C[N+](C)(C)C[C@H](O)CC(=O)[O-] [L-carnitine], which “protection from toxicity induced by B10” value (rats) is on record?
A: protected rats from the toxicity of B10

Q: For CC(C)C[C@@H](C=O)NC(=O)[C@H](CC(C)C)NC(=O)[C@H](CC(C)C)NC(=O)OCc1ccccc1 [MG132] (Cbz-Leu-Leu-Leu-aldehyde), which “levels of ubiquitinated proteins” value (ubiquitinated proteins) is on record?
A: increase in ubiquitinated proteins

Q: For CCCC(C(=O)OCCN(CC)CC)(c1ccccc1)c1ccccc1.Cl [SKF-525A, 2-diethylaminoethyl-2,2-diphenylvalerate-Hcl], which “protection from toxicity induced by B10” value (rats) is on record?
A: lessened toxicity

Q: For CCOc1ccc2c(c1)C(C)=CC(C)(C)N2 [ethoxyquin], which “protection from toxicity induced by B10” value (rats) is on record?
A: protects rats from toxicity induced by B10
